Laboratory results: US10537611B2, “Methods of treating lung cancer” (Five Prime Therapeutics, Inc., priority 2011, dated 2020)

Legend:
[1] = tested on: lung cancer xenografts without FGFR1 gene amplification; assay: Tumor growth inhibition, lung cancer xenografts without FGFR1 gene amplification (average); format: in vivo, mouse; conditions: AUC analysis vs albumin control
Excerpt: The impact of FGFR1-ECD.339-Fc on tumor growth was compared between FGFR1 gene amplified and non-amplified lung cancer xenograft models. Lung cell lines without FGFR1-amplification examined in this experiment were as follows: A549, NCI-H460, NCI-H226, NCI-H2126, NCI-H441, NCI-H358, NCI-H522 and Colo699. Non-amplified cell lines were purchased from ATTC (Manassas, Va.) and cultured according to supplier instructions. Lung cancer xenograft models using non-FGFR1 gene amplified cell lines were carried out substantially as described in Example 2.
A panel of patient-derived xenograft (PDX) models of lung cancer without FGFR1-amplification was also examined for sensitivity to FGFR1-ECD.339-Fc. […]
Tumor sizes were measured in each mouse on days 11, 18, 25, 32, 39 and 46 following the day of tumor cell inoculation. The length and width of each tumor was measured using calipers and the tumor size calculated according to the formula: Tumor size (mm^3)=[…] Mice were euthanized as a “cancer death” when the subcutaneous tumor volumes exceeded 2000 mm^3 or when the tumors became excessively necrotic.
Percentage tumor growth inhibition by FGFR1-ECD.339-Fc was determined by area-under-the-curve (AUC) analysis of xenograft growth curves treated with FGFR1-ECD.339-Fc compared to albumin control. […]

HEC-1B xenograft model = assay: HEC-1B xenograft tumor growth inhibition; format: in vivo, mouse; conditions: Endometrial HEC-1B; IP 15 mg/kg BIW; non-amplified; P < 0.05
Description: (§1) Percentage tumor growth inhibition by FGFR1-ECD.339-Fc was determined by area-under-the-curve (AUC) analysis of xenograft growth curves treated with FGFR1-ECD.339-Fc compared to albumin control. […] The difference in FGFR1-ECD.339-Fc-mediated xenograft inhibition between FGFR1 gene amplified and non-amplified lung cancer xenograft models was statistically significant (P=0.0333).
(§2) Also shown in Table 5 are the dosing schedule for FGFR1-ECD.339-Fc in a mouse xenograft model, the percent tumor growth inhibition (TGI (%)) and the statistical significance of the tumor growth inhibition (P Value), as well as whether the FGFR1 gene is amplified in the cell line.
(§3) An exemplary xenograft experiment is as follows. For Caki-1 and MSTO-211H, five million cells were implanted subcutaneously over the right flank of SCID mice (N=10 per group). […] Representative tumor growth curves are shown for a renal cancer, Caki-1, (A), and mesothelioma, MSTO-211H, (B) xenograft cancer model. […] In the MSTO-211H mesothelioma model, FGFR1-ECD.339-Fc administration reduced tumor growth (FIG. 16b) by 64% (P<0.0001).

U-251 xenograft model = assay: U-251 xenograft tumor growth inhibition; format: in vivo, mouse; conditions: Glioblastoma U-251; IP 15 mg/kg BIW; non-amplified; P = 0.0078
Description: as §1, §2, §3

NCI-H226 cells = assay: CellTiter-Glo cell number, NCI-H226; format: cell-based, human; conditions: NCI-H226, no FGFR1 amplification, FGFR1 overexpression
Description: To determine the impact of FGFR1-ECD.339-Fc on lung cancer cell lines in tissue culture, cells were plated in a Microtest™ 96-well tissue culture plate (Becton Dickenson, Franklin Lakes, N.J.) at a density of 5×10^3 cells/well in medium containing 10%, 1% or 0.1% FBS in the presence or absence of 15 μg/ml FGFR1-ECD.339-Fc (SEQ ID NO: 6) or an unrelated ECD-Fc fusion protein (as a negative control). Plates were incubated at 37° C. at 5% CO2 for 4 days and then assayed to determine the impact of FGFR1-ECD.339-Fc on cell number and proliferation.
To determine cell number the CellTiter-Glo® Luminescent Cell Viability Assay (Promega, Madison, Wis.) was employed. CellTiter-Glo® is a homogeneous method of determining the number of viable cells in culture based on quantitation of the ATP present, an indicator of metabolically active cells. […] Luminescence was then determined on an EnVision™ Multilabel Plate Reader (PerkinElmer, Boston, Mass.) with a 0.2 second integration time. Results were expressed as relative light units (RLU)/well.
NCI-H226 and NCI-H522 were also sensitive to FGFR1-ECD.339-Fc in vitro, having decreased cell proliferation and number using the tritiated thymidine ([3H]-TdR) incorporation assay and CellTiter-Glo® Luminescent Cell Viability Assay (Promega, Madison, Wis.), respectively. […] P-values were determined using an unpaired t-test. […]

## FGFR1-ECD.339-Fc: human FGFR1 extracellular domain ending at amino acid 339 fused to an Fc; SEQ ID NO: 6 (mature form), SEQ ID NO: 5 with signal peptide
[1]
  average decrease in xenograft growth: 22%
HEC-1B xenograft model
  TGI (%): 30%
U-251 xenograft model
  TGI (%): 48%
NCI-H226 cells
  cell number (CellTiter-Glo): reduced
